Values quoted from earlier work in patent US6703022B2, “Composition and method useful for treating colic” (Lev Laboratories, Inc., priority 1999, dated 2004).

Tested on: mice
Conditions: at certain doses

C=CCc1ccc(OC)cc1 [Estragole, 1-allyl-4-methoxybenzene]
mutagenic and carcinogenic effects: mutagenic and carcinogenic effects
